Source: patent US20230284618A1, “HERBICIDAL COMBINATIONS” (UPL Corporation Limited, priority 2022, published 2023)

Assays:
Format in all cases: in vivo
[1] = system: Geranium spp.; experiment: Pre-emergence bio-efficacy, weed control 85 DAT; details: 85 days after treatment, G ai: imazamox 105, rimsulfuron 70, pendimethalin 4270, mesotrione 210
Description: (§1) Experiments were carried out to evaluate the bio-efficacy of the herbicidal combinations according to the present disclosure. The herbicides were applied at the pre-emergence stage. The results have been disclosed in Tables 1-5.
(§2) Weeds: Common Velvetgrass, Broadleaf spp., Red Sorrel, Dandelion, Geranium spp.

[2] = system: Red Sorrel; experiment: Pre-emergence bio-efficacy, weed control 85 DAT; details: 85 days after treatment, G ai: imazamox 105, rimsulfuron 70, pendimethalin 4270, mesotrione 210
Description: as §1, §2

[3] = system: Dandelion; experiment: Pre-emergence bio-efficacy, weed control 85 DAT; details: 85 days after treatment, G ai: imazamox 105, rimsulfuron 70, pendimethalin 4270, mesotrione 210
Description: as §1, §2

[4] = system: Common Ragweed; experiment: Pre-emergence bio-efficacy, weed control 27 DAT; details: 27 days after treatment, G ai: imazamox 105, rimsulfuron 70, pendimethalin 4270, mesotrione 210
Description: as §1
(§3) Weeds: Giant Foxtail, Common Ragweed, Galinsoga, Yellow Nutsedge

[5] = system: Yellow Nutsedge; experiment: Pre-emergence bio-efficacy, weed control 27 DAT; details: 27 days after treatment, G ai: imazamox 105, rimsulfuron 70, pendimethalin 4270, mesotrione 210
Description: as §1, §3

[6] = system: Galinsoga; experiment: Pre-emergence bio-efficacy, weed control 27 DAT; details: 27 days after treatment, G ai: imazamox 105, rimsulfuron 70, pendimethalin 4270, mesotrione 210
Description: as §1, §3

[7] = system: Giant Foxtail; experiment: Pre-emergence bio-efficacy, weed control 27 DAT; details: 27 days after treatment, G ai: imazamox 105, rimsulfuron 70, pendimethalin 4270, mesotrione 210
Description: as §1, §3

Structure (SMILES)	Control 85 DAT (%) Geranium spp. [1] [%]	Control 85 DAT (%) Red Sorrel [2] [%]	Control 85 DAT (%) Dandelion [3] [%]	Control 27 DAT (%) Common Ragweed [4] [%]	Control 27 DAT (%) Yellow Nutsedge [5] [%]	Control 27 DAT (%) Galinsoga [6] [%]	Control 27 DAT (%) Giant Foxtail [7] [%]
CCS(=O)(=O)c1cccnc1S(=O)(=O)NC(=O)Nc1nc(OC)cc(OC)n1 [Rimsulfuron]	28	18	45				
CCC(CC)Nc1c([N+](=O)[O-])cc(C)c(C)c1[N+](=O)[O-] [Pendimethalin]	18	15	20				
CS(=O)(=O)c1ccc(C(=O)C2C(=O)CCCC2=O)c([N+](=O)[O-])c1 [Mesotrione]	5	8	8				
COCc1cnc(C2=NC(C)(C(C)C)C(=O)N2)c(C(=O)O)c1 (stereo not shown) [Imazamox]	8	13	5	63	40	53	58
